Data from ChEMBL document CHEMBL5724914, “Linking interpersonal differences in gut microbiota composition and drug biotransformation activity” (2024).

Tests used:
[1] = human gut metagenome, 24 h, 2 µM
[2] = (§1) The drug is tested on Z-002 corresponding to rabbit gut metagenome with ENA study accession number: PRJEB37062 and ENA sample accession number: ERS12561802 for biotransformation under anaerobic condition. The drug concentrations were measured over 9 timepoints collected between 0 and 24 hours of incubation by liquid-chromatography-coupled mass spectrometry (LC–MS); settings: 2 µM
[3] = as §1, with “WLS-039” for “Z-002”, “human” for “rabbit”, “ERS12561746” for “ERS12561802”; settings: 2 µM
[4] = human gut metagenome, 24 h, 2 µM; remark: listed apart in the source
[5] = human gut metagenome, 24 h, 2 µM; remark: listed apart in the source
[6] = as §1, with “Z-010” for “Z-002”, “to” for “to rabbit gut”, “ERS12561810” for “ERS12561802”; settings: 2 µM
[7] = as §1, with “Z-005” for “Z-002”, “to” for “to rabbit gut”, “ERS12561805” for “ERS12561802”; settings: 2 µM
[8] = as §1, with “WLS-027” for “Z-002”, “human” for “rabbit”, “ERS12561744” for “ERS12561802”; settings: 2 µM
[9] = human gut metagenome, 24 h, 2 µM; remark: listed apart in the source
Note: call rule not given here.

| Compound | Bacterial Biotransformation [1] | Bacterial Biotransformation [2] | Bacterial Biotransformation [3] | Bacterial Biotransformation [4] | Bacterial Biotransformation [5] | Bacterial Biotransformation [6] | Bacterial Biotransformation [7] | Bacterial Biotransformation [8] | Bacterial Biotransformation [9] |
| --- | --- | --- | --- | --- | --- | --- | --- | --- | --- |
| N=C(N)NC(=O)Cc1c(Cl)cccc1Cl [GUANFACINE] | Compound NOT metabolized | Compound NOT metabolized | Compound NOT metabolized | Compound NOT metabolized | Compound NOT metabolized | Compound NOT metabolized | Compound NOT metabolized | Compound NOT metabolized | Compound NOT metabolized |
| Nc1nc(N)nc(-c2cc(Cl)ccc2Cl)n1.O=C(O)/C=C\C(=O)O [IRSOGLADINE MALEATE] | Compound NOT metabolized | Compound NOT metabolized | Compound NOT metabolized | Compound metabolized | Compound NOT metabolized | Compound NOT metabolized | Compound NOT metabolized | Compound NOT metabolized | Compound NOT metabolized |
| CN1CCC(=C2c3ccccc3CC(=O)c3sccc32)CC1.O=C(O)/C=C/C(=O)O [KETOTIFEN FUMARATE] | Compound NOT metabolized | Compound NOT metabolized | Compound NOT metabolized | Compound metabolized | Compound metabolized | Compound NOT metabolized | Compound NOT metabolized | Compound NOT metabolized | Compound NOT metabolized |
| CC[C@H](C)C(=O)O[C@H]1CCC=C2C=C[C@H](C)[C@H](CC[C@@H]3C[C@@H](O)CC(=O)O3)[C@H]21 [MEVASTATIN] | Compound metabolized | Compound NOT metabolized | Compound metabolized | Compound metabolized | Compound metabolized | Compound NOT metabolized | Compound NOT metabolized | Compound metabolized | Compound NOT metabolized |
| COc1ccc2cc([C@H](C)C(=O)O)ccc2c1 [NAPROXEN] | Compound NOT metabolized | Compound NOT metabolized | Compound metabolized | Compound metabolized | Compound metabolized | Compound NOT metabolized | Compound NOT metabolized | Compound metabolized | Compound NOT metabolized |
| C#C[C@]1(OC(C)=O)CC[C@H]2[C@@H]3CCC4=C/C(=N/O)CC[C@@H]4[C@H]3CC[C@@]21CC [NORGESTIMATE] | Compound metabolized | Compound NOT metabolized | Compound metabolized | Compound metabolized | Compound metabolized | Compound NOT metabolized | Compound NOT metabolized | Compound metabolized | Compound NOT metabolized |
| COc1ccnc(C[S+]([O-])c2nc3ccc(OC(F)F)cc3[nH]2)c1OC (centres undefined) [PANTOPRAZOLE] | Compound metabolized | Compound NOT metabolized | Compound metabolized | Compound metabolized | Compound metabolized | Compound metabolized | Compound NOT metabolized | Compound metabolized | Compound metabolized |
| O=C1N=C([O-])NC1(c1ccccc1)c1ccccc1.[Na+] [PHENYTOIN SODIUM] | Compound metabolized | Compound NOT metabolized | Compound NOT metabolized | Compound metabolized | Compound NOT metabolized | Compound NOT metabolized | Compound NOT metabolized | Compound metabolized | Compound NOT metabolized |
| C[C@]12C=CC(=O)C=C1CC[C@@H]1[C@@H]2C(=O)C[C@@]2(C)[C@H]1CC[C@]2(O)C(=O)CO [PREDNISONE] | Compound metabolized | Compound metabolized | Compound metabolized | Compound metabolized | Compound metabolized | Compound metabolized | Compound NOT metabolized | Compound metabolized | Compound NOT metabolized |
| CN(CCOc1ccc(CC2SC(=O)NC2=O)cc1)c1ccccn1.O=C(O)/C=C\C(=O)O (centres undefined) [ROSIGLITAZONE MALEATE] | Compound NOT metabolized | Compound NOT metabolized | Compound NOT metabolized | Compound metabolized | Compound metabolized | Compound NOT metabolized | Compound NOT metabolized | Compound metabolized | Compound NOT metabolized |
| CC(C)c1nc(N(C)S(C)(=O)=O)nc(-c2ccc(F)cc2)c1/C=C/[C@@H](O)C[C@@H](O)CC(=O)[O-].CC(C)c1nc(N(C)S(C)(=O)=O)nc(-c2ccc(F)cc2)c1/C=C/[C@@H](O)C[C@@H](O)CC(=O)[O-].[Ca+2] [ROSUVASTATIN CALCIUM] | Compound metabolized | Compound NOT metabolized | Compound metabolized | Compound metabolized | Compound metabolized | Compound NOT metabolized | Compound NOT metabolized | Compound metabolized | Compound NOT metabolized |
| O=C(O)c1cc(/N=N/c2ccc(S(=O)(=O)Nc3ccccn3)cc2)ccc1O [SULFASALAZINE] | Compound metabolized | Compound metabolized | Compound metabolized | Compound metabolized | Compound metabolized | Compound metabolized | Compound metabolized | Compound metabolized | Compound metabolized |
| C=CC[C@@H]1/C=C(\C)C[C@H](C)C[C@H](OC)[C@H]2O[C@@](O)(C(=O)C(=O)N3CCCC[C@H]3C(=O)O[C@H](/C(C)=C/[C@@H]3CC[C@@H](O)[C@H](OC)C3)[C@H](C)[C@@H](O)CC1=O)[C@H](C)C[C@@H]2OC.O [TACROLIMUS] | Compound metabolized | Compound metabolized | Compound metabolized | Compound metabolized | Compound metabolized | Compound NOT metabolized | Compound NOT metabolized | Compound metabolized | Compound metabolized |
| CCS(=O)(=O)CCn1c([N+](=O)[O-])cnc1C [TINIDAZOLE] | Compound metabolized | Compound metabolized | Compound metabolized | Compound metabolized | Compound metabolized | Compound metabolized | Compound metabolized | Compound metabolized | Compound metabolized |
| COc1ccc(CN2CCNCC2)c(OC)c1OC.Cl.Cl [TRIMETAZIDINE DIHYDROCHLORIDE] | Compound NOT metabolized | Compound NOT metabolized | Compound NOT metabolized | Compound NOT metabolized | Compound NOT metabolized | Compound NOT metabolized | Compound NOT metabolized | Compound NOT metabolized | Compound NOT metabolized |
| CN1[C@@H]2CC[C@H]1C[C@@H](OC(=O)c1c[nH]c3ccccc13)C2 [TROPISETRON] | Compound NOT metabolized | Compound NOT metabolized | Compound NOT metabolized | Compound NOT metabolized | Compound NOT metabolized | Compound NOT metabolized | Compound NOT metabolized | Compound NOT metabolized | Compound NOT metabolized |
